In US20210255193A1, “LYSINE REACTIVE PROBES AND USES THEREOF” (The Scripps Research Institute, priority 2017, published 2021):

Legend:
[1] = molecular target: T1, ACBD3 Golgi resident protein GCP60 (Homo sapiens, UniProt Q9H3P7); test: competitive isoTOP-ABPP; format: binding; settings: for isoTOP-ABPP ratio (R) at liganded lysine Q9H3P7_K117: 50 uM, in vitro, sol, 231
T1 construct: isoTOP-ABPP experiments performed in cell lysates (in vitro); endogenous in cells; host or cells: soluble proteome of human cancer cell lines (MDA-MB-231; Ramos and Jurkat also prepared)
T1 sequence (Q9H3P7 1-528): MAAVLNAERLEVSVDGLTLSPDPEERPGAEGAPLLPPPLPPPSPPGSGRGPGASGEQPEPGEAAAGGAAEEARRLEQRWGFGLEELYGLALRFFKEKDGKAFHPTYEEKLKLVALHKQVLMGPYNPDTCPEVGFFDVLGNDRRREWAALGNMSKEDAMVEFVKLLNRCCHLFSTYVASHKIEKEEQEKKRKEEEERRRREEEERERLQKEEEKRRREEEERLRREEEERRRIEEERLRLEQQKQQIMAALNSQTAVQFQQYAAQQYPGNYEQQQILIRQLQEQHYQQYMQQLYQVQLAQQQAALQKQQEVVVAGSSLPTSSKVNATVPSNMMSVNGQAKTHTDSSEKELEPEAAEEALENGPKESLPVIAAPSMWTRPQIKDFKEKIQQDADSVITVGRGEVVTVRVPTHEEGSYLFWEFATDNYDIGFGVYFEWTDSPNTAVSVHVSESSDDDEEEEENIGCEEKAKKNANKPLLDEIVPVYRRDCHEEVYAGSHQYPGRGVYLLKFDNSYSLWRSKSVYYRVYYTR
Method: (§1) In vitro covalent fragment treatment for isoTOP-ABPP. All compounds were made up as solutions in DMSO (100×) and were used at a final concentration of 50 μM for activated esters and 100 μM for guanidinylating agents. For each profiling sample, 0.5 ml of lysate was treated with 5 μl of the 100× compound stock solution or 5 μl of DMSO. Samples were treated with activated esters for
(§2) STP-alkyne labeling and click chemistry. For concentration-dependent reactivity measurements by isoTOP-ABPP, 0.5 ml proteome aliquots were treated at ambient temperature with 1 mM STP-alkyne 1 (5 μl of 100 mM stock in DMSO) and 0.1 mM STP alkyne 1 (5 μl of 10 mM stock in DMSO), respectively. For competitive isoTOP-ABPP, after in vitro fragment treatment (detailed above), the samples were labeled for 1 h at ambient temperature with 0.1 mM STP-alkyne 1 (5 μl of 10 mM stock in DMSO). Samples were conjugated by copper-mediated azide-alkyne cycloaddition (CuAAC) to either the light (1 mM STP-alkyne or fragment treated) or heavy (0.1 mM STP-alkyne or DMSO treated) TEV tags (10 μl of 5 mM stocks in DMSO, final concentration=100 μM) using tris(2-carboxyethyl)phosphine hydrochloride
(§3) R value calculation and processing. The ratios of light and heavy MS1 peaks for each unique peptide were quantified with a CIMAGE software using default parameters (3 MS1 acquisitions per peak and signal to noise threshold set to 2.5). For reactivity measurements by isoTOP-ABPP, the R value was calculated from the ratio of MS1 peak areas, comparing the 1 mM STP alkyne sample (light TEV tag) with the 0.1 mM STP alkyne sample (heavy TEV tag). For competitive isoTOP-ABPP, the R value was calculated from the ratio of MS1 peak areas, comparing the DMSO treated sample (heavy TEV tag) with the compound treated sample (light TEV tag). […] Ratios for unique peptide entries are calculated for each experiment; overlapping peptides with the same modified lysine (for example, different charge states, MudPIT chromatographic steps or tryptic termini) are grouped together and the median ratio is reported as the final ratio (R). The peptide ratios reported by CIMAGE were further filtered to ensure the removal or correction of low-quality ratios in each individual data set. The quality filters applied were the following: removal of half tryptic peptides; for ratios with high standard deviations from the median (90% of the median or above) the lowest ratio was taken instead of the median; removal of peptides with R=20 and only a single MS2 event triggered during the elution of the parent ion; manual annotation of all the peptides with ratios of 20, removing any peptides with low quality elution profiles that remained after the previous curation steps (only done for competitive isoTOP-ABPP).
(§4) Cross-data processing for fragment screening. For compound treated samples, biological replicates of the same condition were averaged, if the standard deviation was below 60% of the mean; otherwise, for lysines with at least one R value <4 for a particular compound, the lowest value of the ratio set was taken. For lysines, where all R values for a particular compound were ≥4, the average was reported. For peptides containing several possible modified lysines, the lysine with the highest number of quantification events was used for analysis and the remaining, redundant peptides were reported as alternative modification sites. Peptides included in the aggregate dataset (those used for further bioinformatics and statistical analyses) were required to have been quantified in 2 experiments for competitive isoTOP-ABPP. Lysines were categorized as liganded, if they had at least one ratio R≥4 (hit fragments). For liganded lysines with R=20 for all liganding events, lysines were required to have been quantified with R=20 in two separate experiments and were further required to have been quantified with R<20 in one additional experiment.

[2] = molecular target: T2, PFKP 6-phosphofructokinase type C (Homo sapiens, UniProt Q01813); test: competitive isoTOP-ABPP; format: binding; settings: for isoTOP-ABPP ratio (R) at liganded lysine Q01813_K688: 50 uM, in vitro, sol, 231
T2 construct: isoTOP-ABPP experiments performed in cell lysates (in vitro); endogenous in cells
T2 sequence (Q01813 1-784): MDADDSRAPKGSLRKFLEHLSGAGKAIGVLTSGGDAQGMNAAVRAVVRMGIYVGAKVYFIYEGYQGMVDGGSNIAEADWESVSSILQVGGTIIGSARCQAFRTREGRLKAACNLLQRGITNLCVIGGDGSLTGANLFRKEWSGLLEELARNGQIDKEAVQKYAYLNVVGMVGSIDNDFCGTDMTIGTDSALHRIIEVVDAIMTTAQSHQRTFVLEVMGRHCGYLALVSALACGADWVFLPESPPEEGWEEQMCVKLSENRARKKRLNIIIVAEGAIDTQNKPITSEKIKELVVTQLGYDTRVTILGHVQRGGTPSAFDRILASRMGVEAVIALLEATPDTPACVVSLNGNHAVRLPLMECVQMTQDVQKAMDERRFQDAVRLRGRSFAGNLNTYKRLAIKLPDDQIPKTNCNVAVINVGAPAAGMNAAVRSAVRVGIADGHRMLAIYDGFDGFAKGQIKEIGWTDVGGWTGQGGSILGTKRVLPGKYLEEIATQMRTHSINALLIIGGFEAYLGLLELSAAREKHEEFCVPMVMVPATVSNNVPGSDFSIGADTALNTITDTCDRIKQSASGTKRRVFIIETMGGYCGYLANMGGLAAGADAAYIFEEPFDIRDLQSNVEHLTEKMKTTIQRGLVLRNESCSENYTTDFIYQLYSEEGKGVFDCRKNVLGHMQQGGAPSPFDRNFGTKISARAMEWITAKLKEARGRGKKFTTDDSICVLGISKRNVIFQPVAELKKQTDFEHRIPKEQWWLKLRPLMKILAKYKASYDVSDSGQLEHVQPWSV
Method: as §1, §2, §3, §4

Row | SMILES | isoTOP-ABPP ratio (R) at liganded lysine Q9H3P7_K117 [1] | isoTOP-ABPP ratio (R) at liganded lysine Q01813_K688 [2] | isoTOP-ABPP ratio, lysine Q9H3P7_K117 ([1]; 50 uM_231_sol_in vitro) | isoTOP-ABPP ratio, lysine Q01813_K688 ([2]; 50 uM_231_sol_in vitro) | also measured
1 | O=C(Oc1ccc([N+](=O)[O-])cc1[N+](=O)[O-])c1ccc(-c2ccccc2)cc1 [fragment 37, 2,4-Dinitrophenyl [1,1′-biphenyl]-4-carboxylate] | 0.9 | 1.0 | – | – | –
2 | O=C(CC12CC3CC(CC(C3)C1)C2)Oc1ccc([N+](=O)[O-])cc1[N+](=O)[O-] [fragment 38, 2,4-Dinitrophenyl 2-(adamantan-1-yl)acetate] | 1.0 | 4.1 | – | – | –
3 | O=C(Oc1ccc([N+](=O)[O-])cc1[N+](=O)[O-])c1ccc(Oc2ccccc2)cc1 [fragment 39, 2,4-Dinitrophenyl 4-phenoxybenzoate] | 0.9 | 1.0 | – | – | –
4 | O=C(Oc1ccc([N+](=O)[O-])cc1[N+](=O)[O-])c1ccccc1Nc1cccc(C(F)(F)F)c1 [fragment 40, 2,4-Dinitrophenyl 2-((3-(trifluoromethyl)phenyl)amino)benzoate] | 0.9 | 1.0 | – | – | –
5 | CC(C)(C)OC(=O)NCCCC(=O)Oc1ccc([N+](=O)[O-])cc1[N+](=O)[O-] [fragment 41, 2,4-Dinitrophenyl 4-((tert-butoxycarbonyl)amino)butanoate] | 1.2 | 4.9 | – | – | –
6 | O=C(Oc1ccc([N+](=O)[O-])cc1[N+](=O)[O-])C(c1ccccc1)(c1ccccc1)c1ccccc1 [fragment 42, 2,4-Dinitrophenyl 2,2,2-triphenylacetate] | 1.0 | 1.0 | – | – | –
7 | CC(=O)Oc1ccc([N+](=O)[O-])cc1[N+](=O)[O-] [fragment 43, 2,4-Dinitrophenyl acetate] | 1.2 | 3.9 | – | – | –
8 | N#Cc1ccc(C(=O)Oc2ccc([N+](=O)[O-])cc2[N+](=O)[O-])cc1 [fragment 44, 2,4-Dinitrophenyl 4-cyanobenzoate] | – | – | 0.8 | 4.2 | –
9 | O=C(CCc1ccc2c(c1)OCO2)Oc1ccc([N+](=O)[O-])cc1[N+](=O)[O-] [fragment 45, 2,4-Dinitrophenyl 3-(benzo[d][1,3]dioxol-5-yl)propanoate] | – | – | 1.1 | 20.0 | –
10 | O=C(ON1C(=O)CCC1=O)c1cc(C(F)(F)F)cc(C(F)(F)F)c1 [fragment 46, 3,5-Bis(trifluoromethyl)benzoic acid NHS ester] | – | – | 7.7 | 1.7 | –
11 | O=C(Oc1c(F)c(F)c(C(F)(F)F)c(F)c1F)c1cc(C(F)(F)F)cc(C(F)(F)F)c1 [fragment 47, 2,3,5,6-Tetrafluoro-4-(trifluoromethyl)phenyl 3,5-bis(trifluoromethyl)benzoate] | – | – | 1.0 | 1.0 | –
12 | O=C(Oc1c(F)c(F)cc(F)c1F)c1cc(C(F)(F)F)cc(C(F)(F)F)c1 [fragment 48, 2,3,5,6-Tetrafluorophenyl 3,5-bis(trifluoromethyl)benzoate] | – | – | 0.9 | 1.4 | –
13 | COC(=O)NC(=NC(=O)OCC1c2ccccc2-c2ccccc21)n1cccn1 [fragment 49, N-Methoxycarbonyl-N′-9-fluorenylmethoxycarbonyl-pyrazole-1-carboxamidine] | – | – | – | – | isoTOP-ABPP ratio, lysine Q9H3P7_K117 ([1]; 100 uM_231_sol_in vitro): 13.9; isoTOP-ABPP ratio, lysine Q01813_K688 ([2]; 100 uM_231_sol_in vitro): 9.6
14 | CC(C)(C)OC(=O)N=C(NC(=O)OC(C)(C)C)n1cccn1 [fragment 50, reference compound] | – | – | – | – | isoTOP-ABPP ratio, lysine Q9H3P7_K117 ([1]; 100 uM_231_sol_in vitro): 14.9; isoTOP-ABPP ratio, lysine Q01813_K688 ([2]; 100 uM_231_sol_in vitro): 18.2
15 | NC(=O)c1cc(C(F)(F)F)cc(C(F)(F)F)c1 [fragment 51, reference compound] | – | – | 0.9 | 0.9 | –
